{"source": "patent US6395308B1", "about": "“Purified extract from Harpagophytum procumbens and/or Harpagophytum zeyheri dence” (Finzekberg GmbH & Co. KG, priority 1996, dated 2002)", "key": {"[1]": {"test": "stability in artificial gastric juice", "format": "in vitro ADME", "details": "both in pure form and in diluted form"}, "[2]": {"test": "stability in artificial intestinal juice", "format": "in vitro ADME", "details": "both in pure form and in diluted form"}}}
{"compound": "C[C@]1(OC(=O)/C=C/c2ccccc2)C[C@@H](O)[C@]2(O)C=CO[C@@H](O[C@@H]3O[C@H](CO)[C@@H](O)[C@H](O)[C@H]3O)[C@@H]21", "note": "[harpagoside]", "values": [{"measurement": "stability in artificial gastric juice", "setting": "[1]", "result": "stable for at least two hours"}, {"measurement": "stability in artificial intestinal juice", "setting": "[2]", "result": "stable for at least two hours"}]}
